Test results reported in patent US8278348B2, “Chondropsin-class antitumor V-atpase inhibitor compounds, compositions and methods of use thereof” (priority 2002, dated 2012).

Legend:
Assay in all cases: Two day XTT cytotoxicity assay
Type in all cases: cell-based
A549 = conditions: Homo sapiens, Breast
Description: (§1) This example describes the cytoxicity of poecillastrin A (1), isolated in Example 1. The cytotoxicity assay, details of which have been described previously (Bokesch et al., J. Nat. Prod. 1999, 62, 633-635), utilized melanoma (LOX), breast […], ovarian (OVCAR-3), and non-small cell lung (SNB-19) human tumor cell lines and IC-2^WT and IC-2^V814 murine mast cell lines (Hashimoto et al., Am. J. Pathol. 1996, 148, 189-200).
(§2) The in vitro 10 cell-line bioassay was a two day bioassay. Cells were grown in RPMI-1640 (Rosweli Park Memorial Institute) without L-glutamine, supplemented with 10% fetal bovine serum, 5.0 mL of a 200 mM glutamine stock, and 0.5 mL of gentamicin and plated out in T-162 cm^2 flasks. Once the cells were confluent, they were harvested and plated in 96-well microtiter flat-bottom plates at a seeding density of 50-10,000 cells per well, to yield optical density readings in the range of 1-2.0, and incubated for 1 h in a 37° C., 5% CO2 incubator. After the 1 h incubation, the cells were then introduced to the sample of poecillastrin A, via a Beckman Biomek Workstation-1000. The Biomek-1000 performed seven serial dilutions in a 96-well round-bottom plate and then transferred aliquots of 100 μL to the assay plate. The plate was then returned to the incubator for […]. After the two day incubation, the cells were exposed to tetrazolium salt, 2,3-bis[2-methoxy-4-nitro-5-sulfophenyl]-2H-tetrazolium-5-carboxanilide (XTT), for a 4 h incubation in a 37° C. incubator, where viable cells reduced the tetrazolium salt to a colored formazan product. Once the incubation was complete, the plates were read in a dual wavelength mode at 450 nm, with a 650 nm reference, using a SpectraMAX 250 (Molecular Devices) plate reader. Resulting data for each cell line are found in Table 3.

OVCAR-3 = conditions: Homo sapiens, Ovarian
Description: as §1, §2

SNB-19 = conditions: Homo sapiens, Non-small cell lung
Description: as §1, §2

IC-2 WT = conditions: Mus musculus, Murine mast cell
Description: as §1, §2

LOX = conditions: Homo sapiens, Melanoma
Description: as §1, §2

IC-2 V814 = conditions: Mus musculus, Murine mast cell
Description: as §1, §2

**Q.** Which results are given for `COC1/C=C/C=C/CC/C=C/C=C/C(=O)NC(C(O)C(=O)O)C(=O)OC(C(C)C(O)C(NC(=O)C(C)C(O)CCC(C)C(O)/C(C)=C/C(C)(C)C(O)C(CC(C)C)NC(=O)/C=C/C(C)(C)C(=O)C(C)C(O)C(C)C)C(C)O)C/C=C(\C)C(O)C(C)/C=C(\C)C(O)C(C)C(O)CC2CC(C)CC1O2` (stereo not drawn) [Poecillastrin A, poecillastrin A]?
**A.** IC50 (A549): > 10000 nM; IC50 (OVCAR-3): 28 nM; IC50 (SNB-19): > 10000 nM; IC50 (IC-2 WT): 206 nM; IC50 (LOX): 14 nM; IC50 (IC-2 V814): 546 nM
